Source: patent US20130190345A1, “MATRINIC ACID/MATRINE DERIVATIVES AND PREPARATION METHODS AND USES THEREOF” (priority 2010, published 2013)
≈ marks a conversion by molar mass, not a printed value.

Legend:
HCV = test: Inhibition effects of compounds on HCV in Huh7.5 cultured cell after HCV infection; assay type: cell-based; conditions: for EC50 (half effective concentration): virus not given, stands beside HCV inhibition rate
Method: 1×10^5/ml Huh7.5 cells (purchased from Vertex Pharmaceutical Co., USA) were inoculated in an amount of 0.1 ml on 96-well culture plate, placed in an incubator with 37° C., 5% CO2 content and saturation humidity, and cultured for 24 h, HCV virus in 45 IU/cell was used to infect Huh7.5, different drug solutions (DM122) formulated with culture medium were added, and cell control and HCV infection control were set. Cultivation was continuously performed in the incubator with 37° C., 5% CO2 content and saturation humidity for 72 h, kit for RNA extraction was used to extract intracellular RNA, one-step qRT-PCR was used to determine intracellular contents of HCV and GAPDH RNA, and the inhibition effects of drug on HCV infection was analyzed. […] In comparison with the virus control group, the inhibition effects on HCV infection upon action of different drugs were analyzed. […] This experiment was repeated for 3 times, * indicated […] in comparison with control, ** indicated p<0.01 in comparison with control.

2.2.15 cells = test: Drug TC50 by MTT detection; assay type: cell-based; conditions: Reed-Muench
Method: 2.2.15 cells (all cells were purchased from Vertex Pharmaceutical Co., USA) in exponential growth phase were inoculated on 96-well culture plate, 2×10^5 cells/well, added with culture media containing PFA diluted in different concentration rates, 3 wells for each diluted concentration, placed in 37° C. CO2—containing incubator and cultivated for 48 h; the supernatant was discarded, 100 μl of MTT (0.5 mg/ml) in culture medium was added, cultivation was continuously performed at 37° C. for 4 h; each well was added to 100 μl of 50% DMF-20% SDS destaining solution, stood at 37° C. overnight; ELISA was used to measure optical density at wavelength of 570 nm (0D570).
In each experiment, 3 cell control wells and 3 blank controls well were set, the results were used in formula, (cell control OD570-drug-medicated cell OD570)/cell control OD570, to calculate cell death rate (%), and Reed-Muench method was used to calculate half toxic concentration TC50.

Hsc70 [1] = test: Inhibition effects of compound on Hsc70 in Huh7.5 cultured cell (qRT-PCR, Western blotting); assay type: cell-based; set-up: key to Hsc70 down-regulation rate (%): “—” represents no significant inhibition rate
Method: 2×10^5/ml Huh7.5 cells (purchased from Vertex Pharmaceutical Co., USA) were inoculated in an amount of 3 ml on 6-well culture plate, placed in an incubator with 37° C., 5% CO2 content, saturation humidity, and cultured for 24 h, added with different drug solutions (DM122) formulated with culture medium, and cell control was set. Cultivation was continuously performed in the incubator with 37° C., 5% CO2 content, saturation humidity for 24 h, a kit for RNA extraction was used to extract intracellular RNA from the cells, and one-step qRT-PCR was used to determine intracellular contents of Hsc70 and GAPDHRNA. After the cultivation of cells was performed for 48 h, the cells were digested and harvested, then the cells were split with CytoBuster™ Protein Extraction Buffer that contained many kinds of protease inhibitors, total intracellular proteins were extracted, and Western blotting was used to analyze the contents of Hsc70 and GAPDH proteins. In comparison with the cell control, the inhibition effects on Hsc70 upon action of different drugs were analyzed.

Hsc70 [2] = test: Detection of Hsc70 gene expression level upon action of compound on 2.2.15 cells (real-time fluorescent quantified PCR); assay type: cell-based; set-up: Hsc70 mRNA / Hsc70 down-regulation rate (%): unit not given here; conditions: for Hsc70 inhibition rate (down-regulation of Hsc70 expression activity, expressed in relative OMT ratio) / Hsc70 mRNA: 2.2.15 cells; for Hsc70 inhibition rate (down-regulation of Hsc70 expression activity, expressed in relative OMT ratio): relative to OMT (= 1); for Hsc70 mRNA: down-regulation of liver cell Hsc70 gene; for Hsc70 down-regulation rate (%): single value, concentration not given, values coincide with Table 1 relative OMT ratios
Method: 2.2.15 cells (purchased from Vertex Pharmaceutical Co., USA) in a number of 1×10^6 were inocubated to 6-well plate, cultured in a culture medium containing 10% fetal calf serum for 24 hr, the original culture medium was discarded, replaced with a culutre medium containing 400 μg/ml OMTR, which was used as control. Compounds were firstly dissolved in MEM to form 20 mg/ml mother liquid, which was diluted with culture medium when used and then applied to cells. The compounds of Examples 1-114 were separately used for treatment for 12, 24, 36 hr, then cells were harvested for extraction of RNA and DNA, then the changes of Hsc70 mRNA and HBV DNA were detected by real-time fluorescent quantified PCR.

SMILES	HCV inhibition rate (%) (HCV; 200 ug/ml (upper data))	HCV inhibition rate (%) (HCV; 400 ug/ml (lower data))	EC50 (half effective concentration) (HCV) [µg/mL]	CC50 (concentration to cause poisoning in half cells) (2.2.15 cells) [µg/mL]	Hsc70 down-regulation rate (%) (Hsc70 [1]; 200 ug/ml (upper data))	Hsc70 down-regulation rate (%) (Hsc70 [1]; 400 ug/ml (lower data))	Hsc70 inhibition rate (down-regulation of Hsc70 expression activity, expressed in relative OMT ratio) (Hsc70 [2])	melting point [°C]	Hsc70 mRNA (Hsc70 [2])	Hsc70 down-regulation rate (%) (Hsc70 [2])
O=C(O)CCC[C@@H]1[C@H]2CCCN3CCC[C@@H](CN1Cc1ccc([N+](=O)[O-])cc1)[C@@H]23 [DM-123, N-(4-nitrobenzyl) matrinic acid]	74.0 ± 7.8	81.1 ± 6.6	104.61 (≈ 261 µM)	455.7 (≈ 1130 µM)	65.9 ± 6.9%	70.5 ± 2.3%	−1.6			
O=C(O)CCC[C@@H]1[C@H]2CCCN3CCC[C@@H](CN1Cc1ccc(OC(F)(F)F)cc1)[C@@H]23 [DM-162, N-(4-trifluoromethoxybenzyl) matrinic acid]	96.2 ± 0.3	99.1 ± 0.1	34.06 (≈ 77.3 µM)	431.6 (≈ 980 µM)	—	—				
O=C(O)CCCC1C2CCCN3CCCC(CN1Cc1cccc([N+](=O)[O-])c1)C23 (stereo not drawn) [DM-137, N-(3-nitrobenzyl) matrinic acid]	99.8 ± 0.1	99.7 ± 0.0	<12.34	471.59 (≈ 1170 µM)	—	—	1.31			
O=C(O)CCCC1C2CCCN3CCCC(CN1Cc1cccc(F)c1)C23 (stereo not drawn) [DM-133, N-(3-fluorobenzyl) matrinic acid]	96.4 ± 0.8	98.6 ± 0.8	67.33 (≈ 180 µM)	527.8 (≈ 1410 µM)	—	—	0.81			
CC(=O)N1C[C@@H]2CCCN3CCC[C@@H](C23)C1CCCC(=O)O (stereo partly drawn) [DM-101, N-acetyl matrinic acid]							0.73	196.8 to 198.9		
Cc1ccc(C(=O)N2CC3CCCN4CCCC(C34)C2CCCC(=O)O)cc1 [Compound L7, (5R)—N-(p-methylbenzoyl)matrinic acid]	89.5 ± 2.0	95.7 ± 1.1	291.73 (≈ 759 µM)	>1000	63.3 ± 1.2%	—				
O=C1C(O)C(O)CC2C3CCCN4CCCC(CN12)C34 (stereo not drawn) [Compound 8, 13,14-dihydroxyl matrine]								156 to 158	38.9 ± 0.13	
O=C(O)CCCC1NCC2CCCN3CCCC1C23 (stereo not drawn) [DM-100, matrinic acid]							1.02	185.7 to 187.7		
COc1ccc(S(=O)(=O)N2CC3CCCN4CCCC(C34)C2CCCC(=O)O)cc1 (stereo not drawn) [DM-103, N-(4-methoxybenzenesulfonyl) matrinic acid]	69.1 ± 14.5	91.4 ± 1.8	135.71 (≈ 311 µM)	>1000	74.8 ± 5.6%	—				
O=C(O)CCC[C@@H]1[C@H]2CCCN3CCC[C@@H](CN1Cc1ccccc1F)[C@@H]23 [DM-135, N-(2-fluorobenzyl)matrinic acid]	74.3 ± 8.2	90.5 ± 2.0	29.86 (≈ 79.7 µM)	620.68 (≈ 1660 µM)	0.1 ± 5.6%	—	0.41			
Cc1cccc(CN2CC3CCCN4CCCC(C2CCCC(=O)O)C34)c1 (stereo not drawn) [DM-139, N-(3-methylbenzyl) matrinic acid]	88.5 ± 4.8	98.1 ± 1.0	98.65 (≈ 266 µM)	885.1 (≈ 2390 µM)	20.5 ± 24.8%	—	1.39			
O=C(O)CCCC1C2CCCN3CCCC(CN1Cc1ccc(F)cc1)C23 (stereo not drawn) [DM-132, N-(4-fluorobenzyl) matrinic acid]	67.7 ± 5.8	82.7 ± 5.6	52.86 (≈ 141 µM)	903.2 (≈ 2410 µM)	80.1 ± 5.7%	32.8 ± 26.8%	0.99			
O=C1CC(O)CC2C3CCCN4CCCC(CN12)C34 (stereo not drawn) [Compound 5, β-hydroxyl matrine]								211 to 213	50.4 ± 0.19	
COC1=CCC2C3CCCN4CCCC(CN2C1=O)C34 (stereo not drawn) [Compound 10, 14-methoxy sophocarpine]								110 to 111	39.7 ± 0.16	
Cc1ccccc1CN1CC2CCCN3CCCC(C1CCCC(=O)O)C23 (stereo not drawn) [DM-138, N-(2-methylbenzyl) matrinic acid]	91.5 ± 7.4	95.1 ± 2.9	82.49 (≈ 223 µM)	418.3 (≈ 1130 µM)	34.8 ± 2.1%	21.1 ± 12.0%	1.35			
Cc1ccc(CN2CC3CCCN4CCCC(C2CCCC(=O)O)C34)cc1 (stereo not drawn) [DM-140, N-(4-methylbenzyl) matrinic acid]	83.4 ± 1.8	96.0 ± 1.2	18.68 (≈ 50.4 µM)	>1000	53.8 ± 7.6%	—	0.77			
CC(=O)N1C[C@H]2CCCN3CCC[C@@H](C23)C1CCCC(=O)O (stereo partly drawn)								127.4 to 129.6		
O=C(O)CCCC1C2CCCN3CCCC(CN1Cc1cccc(Cl)c1Cl)C23 (stereo not drawn) [DM-129, N-(2,3-dichlorobenzyl) matrinic acid]			192.02 (≈ 451 µM)	245.5 (≈ 577 µM)			0.27			0.27
O=C(O)CCCC1C2CCCN3CCCC(CN1Cc1ccc(Cl)cc1)C23 (stereo not drawn) [DM-126, N-(4-chlorobenzyl) matrinic acid]			21.11 (≈ 54 µM)	>1000			0.62			0.62
